This is an account of results in patent publication US10874640B2 (GILEAD SCIENCES, INC., priority 2016, dated 2020).

Molecules are shown by their SMILES.

One series concerns HBV AD38 viral particles in HepG2 cell line overexpressing NTCP. Nature of the series: HBV DNA Quantification Assay. The note with it: Hepatitis B virus, HepG2, 120 h, HBV AD38-infected HepG2-NTCP cells, 5 days incubation, HBV DNA in culture supernatant (QuantiGene 2.0); geometric mean of a minimum of four determinations. Type of series: cell-based. The protocol:
A HepG2 cell line overexpressing the HBV virus attachment receptor sodium-taurocholate cotransporting polypeptide (NTCP) was grown to confluency in DMEM growth medium, Dulbecco's Modified Eagle Medium without sodium pyruvate (Life Technologies, Rockville, Md.) supplemented with 10% FBS (Thermo Scientific, Waltham, Md.), 1% penicillin/streptomycin (Life Technologies, Rockville, Md.) and 2 mM L-glutamine (Life Technologies, Rockville, Md.) in T175 flasks. Cells were infected with HBV AD38 viral particles (Texcell, Frederick, USA) at 4000 genome equivalents per cell. […] The assay plates were incubated for a period of 5 days and the antiviral activity of the test compounds were assayed by detecting the presence of HBV DNA in the culture supernatant using the QuantiGene™ 2.0 nucleic acid quantification kit (Affymetrix, Santa Clara, Calif.).
The culture supernatant was harvested and treated with lysis buffer containing Proteinase K (Affymetrix, Santa Clara, Calif.). […] After the final wash step, the alkaline phosphatase substrate (Luminol APS5) was added and the resulting luminescence signal was read in an EnVision Multilabel Plate Reader (PerkinElmer, Santa Clara, Calif.). […]
For the compound `Cc1c(C(=O)C(=O)NC2(c3c[nH]nn3)CC(F)(F)C2)c2n(c1C(=O)Nc1ccnc(C(F)F)c1F)[C@@H]1C[C@@H]1C2` [Example 80, (1aR,6aR)-5-(2-((3,3-difluoro-1-(1H-1,2,3-triazol-4-yl)cyclobutyl)amino)-2-oxoacetyl)-N-(2-(difluoromethyl)-3-fluoropyridin-4-yl)-4-methyl-1,1a,6,6a-tetrahydrocyclopropa[b]pyrrolizine-3-carboxamide], the EC50 – broadly, the concentration that produces a half-maximal response – was determined as 8.7 nM.

Test system in the next series: not listed separately
The experiment in a line: Hepatic Stability Assay. The series is classed as in vitro ADME. Details: dose or concentration left out as unconfirmed. The conditions noted are these: pooled cryopreserved hepatocytes; read-out: t½. The protocol: The metabolic stability of certain compounds disclosed herein was assessed in vitro in pooled cryopreserved hepatocytes using the in vitro half-life method. Incubations were at 37° C. and final concentrations in the incubations were 1×10^6 cells/mL and […] test concentration of the compound. Aliquots were sequentially removed after 0, 1, 3 and 6 hours and analyzed by LC-MS/MS. In vitro half-life was determined by measuring the rate of disappearance of the compound and then scaled to predicted hepatic clearance using the well-stirred model. […] As such, compounds having a value of 39.5 may have a half live that exceeds 39.5 hours.
On to `CNC(=O)C1(NC(=O)C(=O)c2c(C)c(C(=O)Nc3ccc(F)c(C#N)c3)n3c2CCC3)CC(F)(F)C1` [Example 35, N-(3-cyano-4-fluorophenyl)-7-(2-((3,3-difluoro-1-(methylcarbamoyl)cyclobutyl)amino)-2-oxoacetyl)-6-methyl-2,3-dihydro-1H-pyrrolizine-5-carboxamide], for which the half-life was at least 39.5 h. The same measure, in the same setting: in the case of `CNC(=O)C1(NC(=O)C(=O)c2c(C)c(C(=O)Nc3ccc(F)c(F)c3)n3c2CCC3)CC(F)(F)C1` [Example 44, 7-(2-((3,3-difluoro-1-(methylcarbamoyl)cyclobutyl)amino)-2-oxoacetyl)-N-(3,4-difluorophenyl)-6-methyl-2,3-dihydro-1H-pyrrolizine-5-carboxamide] it was at least 39.5 h; in that of `CNC(=O)C1(NC(=O)C(=O)c2c(C)c(C(=O)Nc3ccc(F)cc3)n3c2CCC3)CC(F)(F)C1` [Example 47, 7-(2-((3,3-difluoro-1-(methylcarbamoyl)cyclobutyl)amino)-2-oxoacetyl)-N-(4-fluorophenyl)-6-methyl-2,3-dihydro-1H-pyrrolizine-5-carboxamide], at least 39.5 h; in that of `CNC(=O)C1(NC(=O)C(=O)c2c(C)c(C(=O)Nc3ccc(F)c(F)c3)n3c2C[C@@H](F)C3)CC(F)(F)C1` [Example 49, (R)-7-(2-((3,3-difluoro-1-(methylcarbamoyl)cyclobutyl)amino)-2-oxoacetyl)-N-(3,4-difluorophenyl)-2-fluoro-6-methyl-2,3-dihydro-1H-pyrrolizine-5-carboxamide], at least 39.5 h. On the same count and under the same terms, in the case of `Cc1c(C(=O)C(=O)NC2(c3c[nH]nn3)CC2)c2n(c1C(=O)Nc1ccnc(C(F)F)c1)[C@@H]1C[C@@H]1C2` [Example 56, (1aR,6aR)-5-(2-((1-(1H-1,2,3-triazol-4-yl)cyclopropyl)amino)-2-oxoacetyl)-N-(2-(difluoromethyl)pyridin-4-yl)-4-methyl-1,1a,6,6a-tetrahydrocyclopropa[b]pyrrolizine-3-carboxamide] it was at least 39.5 h; in that of `Cc1c(C(=O)C(=O)NC2(c3c[nH]nn3)CC2)c2n(c1C(=O)Nc1ccc(F)cc1)CCC2` [Example 70, 7-(2-((1-(1H-1,2,3-triazol-4-yl)cyclopropyl)amino)-2-oxoacetyl)-N-(4-fluorophenyl)-6-methyl-2,3-dihydro-1H-pyrrolizine-5-carboxamide], at least 39.5 h. Same read-out and setting: under `Cc1c(C(=O)C(=O)NC2(C)CS(=O)(=O)C2)c2n(c1C(=O)Nc1ccc(F)c(C#N)c1)[C@@H]1C[C@@H]1C2` [Example 72, (1aR,6aR)—N-(3-cyano-4-fluorophenyl)-4-methyl-5-(2-((3-methyl-1,1-dioxidothietan-3-yl)amino)-2-oxoacetyl)-1,1a,6,6a-tetrahydrocyclopropa[b]pyrrolizine-3-carboxamide] stands at least 39.5 h; under `CNC(=O)C1(NC(=O)C(=O)c2c(C)c(C(=O)Nc3cccc(C(F)F)c3)n3c2CCC3)CC(F)(F)C1` [Example 115, 7-(2-((3,3-difluoro-1-(methylcarbamoyl)cyclobutyl)amino)-2-oxoacetyl)-N-(3-(difluoromethyl)phenyl)-6-methyl-2,3-dihydro-1H-pyrrolizine-5-carboxamide], at least 39.5 h; under `CNC(=O)C1(NC(=O)C(=O)c2c(C)c(C(=O)Nc3ccc(F)c(C(F)F)c3)n3c2CCC3)CC(F)(F)C1` [Example 116, 7-(2-((3,3-difluoro-1-(methylcarbamoyl)cyclobutyl)amino)-2-oxoacetyl)-N-(3-(difluoromethyl)-4-fluorophenyl)-6-methyl-2,3-dihydro-1H-pyrrolizine-5-carboxamide], at least 39.5 h. In the case of `Cc1c(C(=O)C(=O)N[C@](C)(C(N)=O)C(F)(F)F)c2n(c1C(=O)Nc1ccc(F)c(F)c1)CCC2` [Example 135], the half-life was at least 39.5 h. The same measure, in the same setting: under `Cc1c(C(=O)C(=O)N[C@@](C)(C(N)=O)C(F)(F)F)c2n(c1C(=O)Nc1ccc(F)c(F)c1)CCC2` [Example 136] stands at least 39.5 h.
